45 compounds from patent publication US9938262B2, “Benzamides” (Merck Patent GmbH, priority 2011, dated 2018) can be followed below.

The structures appear in SMILES notation. pEC50: −log10 of the molar value. Where two headings read alike, the source gives them in different places. Some results are limits rather than exact numbers.

The target in test [1] is T1, FSHR (Homo sapiens, UniProt P23945).
T1 construct: expressed in transfected cells; host or cells: CHO (Cho-FSHR-LUC-1-1-43)
Description: EC50 of cyclic AMP production in CHO FSHR cells + EC20 FSH (Assay A). To be noted: for pEC50: CHO FSHR cells + EC20 FSH, read-out: Assay A EC50 of cyclic AMP production; for activation at 5 µM: 1 h, effect relative to maximum response of the FSH standard. Type of test: cell-based. In short, it runs like this: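 cAMP HTRF ratio (665/620 nm) read after 1 h, 37 °C exposure of CHO-FSHR cells to compound in presence of EC20 FSH ([…]) and IBMX 200 μM. Responses given relative to FSH standard maximum; EC50 derived.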

Test [2] has as its target T2, follicle-stimulating hormone (FSH) receptor (Rattus norvegicus, UniProt P20395).
T2 construct: endogenous in cells; host or cells: rat granulosa cells
T2 sequence (P20395 18-692): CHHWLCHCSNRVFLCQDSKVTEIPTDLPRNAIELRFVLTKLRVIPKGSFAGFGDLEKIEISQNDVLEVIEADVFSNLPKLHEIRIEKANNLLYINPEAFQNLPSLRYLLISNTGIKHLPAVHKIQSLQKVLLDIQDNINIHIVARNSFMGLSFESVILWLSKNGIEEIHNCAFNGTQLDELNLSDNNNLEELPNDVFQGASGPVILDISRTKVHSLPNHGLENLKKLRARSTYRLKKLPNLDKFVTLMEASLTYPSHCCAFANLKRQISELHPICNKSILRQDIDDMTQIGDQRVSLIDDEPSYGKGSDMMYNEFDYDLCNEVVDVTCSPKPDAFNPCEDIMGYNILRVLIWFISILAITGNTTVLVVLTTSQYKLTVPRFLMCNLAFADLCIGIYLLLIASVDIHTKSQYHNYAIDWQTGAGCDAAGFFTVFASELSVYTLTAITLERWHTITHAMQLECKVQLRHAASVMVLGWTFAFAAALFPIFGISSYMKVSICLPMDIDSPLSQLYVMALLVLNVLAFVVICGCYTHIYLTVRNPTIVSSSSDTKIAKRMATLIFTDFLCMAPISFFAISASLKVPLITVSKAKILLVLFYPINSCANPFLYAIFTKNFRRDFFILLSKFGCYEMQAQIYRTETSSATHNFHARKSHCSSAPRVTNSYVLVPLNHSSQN
Description: Rat granulosa EC50 FSH (Assay B). Particulars: rat granulosa cells. It is filed as cell-based. On the procedure: Example 11: Rat Granulosa EC50 FSH (Assay B)
The assay was performed pursuant to the teaching of Yanofsky et al. (2006) Allosteric activation of the follicle-stimulating hormone (FSH) receptor by selective, nonpeptide agonists. JBC 281(19): 13226-13233, which is incorporated by reference in the disclosure of the invention.

T1 sequence (P23945 18-695): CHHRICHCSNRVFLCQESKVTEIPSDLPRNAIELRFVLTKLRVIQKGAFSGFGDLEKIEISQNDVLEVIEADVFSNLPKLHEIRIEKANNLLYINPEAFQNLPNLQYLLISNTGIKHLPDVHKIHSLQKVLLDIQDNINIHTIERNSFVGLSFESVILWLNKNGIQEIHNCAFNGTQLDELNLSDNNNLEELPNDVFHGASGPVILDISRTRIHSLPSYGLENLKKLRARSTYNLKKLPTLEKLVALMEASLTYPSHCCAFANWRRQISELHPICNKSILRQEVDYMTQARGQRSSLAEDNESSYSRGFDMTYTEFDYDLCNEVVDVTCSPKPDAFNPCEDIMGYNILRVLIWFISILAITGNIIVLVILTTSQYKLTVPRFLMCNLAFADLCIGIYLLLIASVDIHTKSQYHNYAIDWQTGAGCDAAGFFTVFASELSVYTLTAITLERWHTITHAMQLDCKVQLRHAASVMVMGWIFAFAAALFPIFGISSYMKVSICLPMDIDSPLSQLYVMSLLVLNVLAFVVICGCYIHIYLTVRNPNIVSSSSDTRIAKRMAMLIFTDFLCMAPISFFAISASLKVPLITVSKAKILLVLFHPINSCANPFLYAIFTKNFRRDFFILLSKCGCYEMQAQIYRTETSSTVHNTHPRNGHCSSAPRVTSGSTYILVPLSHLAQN
T1 sequence (P01215 25-116 partner): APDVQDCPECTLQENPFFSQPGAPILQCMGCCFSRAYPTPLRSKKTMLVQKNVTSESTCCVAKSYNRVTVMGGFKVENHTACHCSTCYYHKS
T1 sequence (P01225 19-129 partner): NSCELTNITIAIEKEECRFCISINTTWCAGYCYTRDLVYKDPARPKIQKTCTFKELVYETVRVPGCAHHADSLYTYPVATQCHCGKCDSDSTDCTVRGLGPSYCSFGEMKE

The term pEC50 denotes −log10 of the EC50, conventionally taken in molar units. As for `Cc1ccccc1N1CCN(c2ccc(C(=O)NCCc3cccc(C(N)=O)c3)cc2NC(=O)c2coc(C3CC3)n2)CC1` [Compound 307], the pEC50 in test [1] (Table 2) is 6.00 to 7.00; in test [2] (Table 2), 5.00 to 6.00. In the case of `Cc1ccccc1N1CCN(c2ccc(C(=O)NCCCN3CCCC3=O)cc2NC(=O)c2ccc(Cl)o2)CC1` [Compound 135], the pEC50 in test [1] (Table 1) and in test [2] (Table 1) was 6.00 to 7.00 each time. As to `Cc1ccccc1N1CCN(c2ccc(C(=O)NCc3cccc(C(N)=O)c3)cc2NC(=O)c2ccco2)CC1` [Compound 189], the pEC50 in test [1] (Table 1) is above 7.00; in test [2] (Table 1), 6.00 to 7.00. Turning to `Cc1ccccc1N1CCN(c2ccc(C(=O)NCCCc3nn[nH]n3)cc2NC(=O)c2coc(C3CC3)n2)CC1` [Compound 392], the figures for the negative logarithm of the EC50 (pEC50) in test [1] (Table 2) and in test [2] (Table 2) were above 7.00 and 6.00 to 7.00, respectively.

In the case of `Cc1nc(C)n(CCCNC(=O)c2ccc(N3CCN(c4ccccc4C)CC3)c(NC(=O)c3coc(C4CC4)n3)c2)n1` [Compound 394], the negative logarithm of the EC50 (pEC50) in test [1] (Table 2) was 6.00 to 7.00. Moreover, the “Assay B % at 1.25 μM” value in test [2] (1.25 μM, Table 2) amounted to 50%. For `Cc1ccccc1N1CCN(c2ccc(C(=O)NCCCN3C(=O)CSC3=O)cc2NC(=O)c2ccco2)CC1` [Compound 150], the negative-log EC50 (pEC50) in test [1] (Table 1) and in test [2] (Table 1) was 6.00 to 7.00 in each case.

As for `Cc1ccccc1N1CCN(c2ccc(C(=O)NCCCN3CCCC3=O)cc2NC(=O)c2ccco2)CC1` [Compound 2], the results for the pEC50 in test [1] (Table 1) and in test [2] (Table 1) were above 7.00 and 5.00 to 6.00, respectively. On to `C#Cc1ccc(C(=O)Nc2cc(C(=O)NCCCN3CCCC3=O)ccc2N2CCN(c3ccccc3C)CC2)o1` [Compound 176, 5-ethynyl-furan-2-carboxylic acid [5-[3-(2-oxo-pyrrolidin-1-yl)-propylcarbamoyl]-2-(4-o-tolyl-piperazin-1-yl)-phenyl]-amide], for which the values for the negative logarithm of the EC50 (pEC50) in test [1] (Table 1) and in test [2] (Table 1) were 6.00 to 7.00 and 5.00 to 6.00, respectively.

`Cc1ccccc1N1CCN(c2ccc(C(=O)NCCCN3CCCC3=O)cc2NC(=O)C2CC2)CC1` [Compound 84] gave a negative-log EC50 (pEC50) in test [2] (Table 1) of 6.00 to 7.00. `Cc1ccccc1N1CCN(c2ccc(C(=O)NCCCN3CCCC3=O)cc2NC(=O)c2ccccn2)CC1` [Compound 36]: the pEC50 in test [2] (Table 1) was 6.00 to 7.00. For `Cc1ncc(C(=O)Nc2cc(C(=O)NCCCN3CCCC3=O)ccc2N2CCN(c3ccccc3C)CC2)o1` [Compound 349], the values for the pEC50 in test [1] (Table 2) and in test [2] (Table 2) were 6.00 to 7.00 and 5.00 to 6.00, respectively.

As for `Cc1ccc(CNc2cc(C(=O)NCCCN3CCCC3=O)ccc2N2CCN(c3ccccc3C)CC2)o1` [Compound 410], the negative-log EC50 (pEC50) in test [1] (Table 2) is 6.00 to 7.00; in test [2] (Table 2), 5.00 to 6.00. With `Cc1ccccc1N1CCN(c2ccc(C(=O)N[C@H]3O[C@@H](CO)[C@H](O)[C@@H]3O)cc2NC(=O)c2coc(C3CC3)n2)CC1` [Compound 311], the pEC50 in test [1] (Table 2) and in test [2] (Table 2) was 6.00 to 7.00 in each case. Consider `Cc1ccccc1N1CCN(c2ccc(C(=O)NCCc3cccc(C(N)=O)c3)cc2NC(=O)c2ccco2)CC1` [Compound 188], for which the pEC50 in test [1] (Table 1) and in test [2] (Table 1) was 6.00 to 7.00 throughout.

On to `Cc1ccc(C(=O)Nc2cc(C(=O)NCCCN3CCCC3=O)ccc2N2CCN(c3ccccc3C)CC2)cc1` [Compound 35], for which the pEC50 was 6.00 to 7.00 in test [1] (Table 1) and 5.00 to 6.00 in test [2] (Table 1).

As for `Cc1ccccc1N1CCN(c2ccc(C(=O)NCCCN3CCCC3=O)cc2NS(=O)(=O)c2cccc3cccnc23)CC1` [Compound 45], the pEC50 in test [1] (Table 1) and in test [2] (Table 1) was 6.00 to 7.00 in each case.

As for `Cc1nc(C(=O)Nc2cc(C(=O)NCCCN3CCCC3=O)ccc2N2CCN(c3ccccc3C)CC2)co1` [Compound 75], the pEC50 in test [2] (Table 1) is below 5.00. Consider `Cc1ccccc1N1CCN(c2ccc(C(=O)NCCCN3CCCC3=O)cc2NC(=O)c2occc2C)CC1` [Compound 5], for which the negative-log EC50 (pEC50) in test [2] (Table 1) is 5.00 to 6.00. On to `Cc1ccccc1N1CCN(c2ccc(C(=O)NCCCN3CCCC3=O)cc2NC(=O)c2ccccc2)CC1` [Compound 27], for which, in test [2] (Table 1), the pEC50 was 5.00 to 6.00. As for `Cc1ccc(C(=O)Nc2cc(C(=O)NCCCN3CCCC3=O)ccc2N2CCN(c3ccccc3C)CC2)o1` [Compound 6], the pEC50 in test [2] (Table 1) was 6.00 to 7.00. On the same count and under the same terms, then `Cc1ccccc1N1CCN(c2ccc(C(=O)NCCCC3CCOC3)cc2NC(=O)c2ccco2)CC1` (centres unmarked) [Compound 158], with 6.00 to 7.00.

`Cc1ccc(C(=O)Nc2cc(C(=O)NCCN3CCS(=O)(=O)CC3)ccc2N2CCN(c3ccccc3C)CC2)o1` [Compound 174, 5-Methyl-furan-2-carboxylic acid [5-[2-(1,1-dioxo-1 lambda*6*-thiomorpholin-4-yl)ethylcarbamoyl]-2-(4-o-tolyl-piperazin-1-yl)-phenyl]-amide]: the negative logarithm of the EC50 (pEC50) in test [1] (Table 1) is 5.00 to 6.00.

Consider `Cc1ccccc1N1CCN(c2ccc(C(=O)NCCCNC(=O)NC3CCCC3)cc2NC(=O)c2ccco2)CC1` [Compound 494], for which the pEC50 in test [1] (Table 2) is 6.00 to 7.00. For the compound `Cc1ccccc1N1CCN(c2ccc(C(=O)NCC(=O)NC3CCS(=O)(=O)C3)cc2NC(=O)c2ccco2)CC1` (centres unmarked) [Compound 376], in test [1] (Table 2), the pEC50 was 6.00 to 7.00. Take `Cc1ccccc1N1CCN(c2ccc(C(=O)NCCNC3CS(=O)(=O)C[C@@H]3O)cc2NC(=O)c2ccco2)CC1` (some centres unmarked) [Compound 607]: the pEC50 in test [1] (Table 2) was 6.00 to 7.00.

Consider `Cc1ccccc1N1CCN(c2ccc(C(=O)NCCN3CCOC3=O)cc2NC(=O)c2coc(C3CC3)n2)CC1` [Compound 350], for which the negative logarithm of the EC50 (pEC50) in test [1] (Table 2) was 6.00 to 7.00. On to `Cc1ccccc1N1CCN(c2ccc(C(=O)N[C@@H]3CCCN(C(=O)OC(C)(C)C)C3)cc2NC(=O)c2ccco2)CC1` [Compound 21], for which the activation at 5 µM in test [1] (Table 1) was 22%. On to `Cc1ccccc1N1CCN(c2ccc(C(=O)NCCCN3CCCC3=O)cc2NC(=O)c2ccc(-c3ccccc3)o2)CC1` [Compound 13], for which the activation at 5 µM in test [1] (Table 1) came to 14%. On to `Cc1ccc(C(=O)Nc2cc(C(=O)NC(C)CCN3CCCC3=O)ccc2N2CCN(c3ccccc3C)CC2)o1` (centres unmarked) [Compound 398], for which, in test [1] (Table 2), the negative-log EC50 (pEC50) is 6.00 to 7.00.

On to `C=CCNC(=O)NCCCNC(=O)c1ccc(N2CCN(c3ccccc3C)CC2)c(NC(=O)c2coc(C3CC3)n2)c1` [Compound 426], for which the pEC50 in test [1] (Table 2) is 6.00 to 7.00.

Regarding `CCc1ccc(C(=O)Nc2cc(C(=O)NCCCN3CCCC3=O)ccc2N2CCN(c3ccccc3C)CC2)o1` [Compound 140], the pEC50 in test [1] (Table 1) was 6.00 to 7.00. With `Cc1ccccc1N1CCN(c2ccc(C(=O)NCCCN3CCCC3=O)cc2NC(=O)c2cccc(F)c2)CC1` [Compound 30], the pEC50 in test [1] (Table 1) is 5.00 to 6.00. Same read-out and setting: with `CCc1ocnc1C(=O)Nc1cc(C(=O)NCCCN2CCCC2=O)ccc1N1CCN(c2ccccc2C)CC1` [Compound 77] the figure was 5.00 to 6.00. As to `Cc1ccccc1N1CCN(c2ccc(C(=O)NC[C@@H]3OC(C)(C)O[C@H]3CN)cc2NC(=O)c2coc(C3CC3)n2)CC1` [Compound 549], the negative logarithm of the EC50 (pEC50) in test [1] (Table 2) was 6.00 to 7.00. With `Cc1ccccc1N1CCN(c2ccc(C(=O)NCCN(C)C(=O)c3ccc4c(c3)OCO4)cc2NC(=O)c2ccco2)CC1` [Compound 134, Benzo[1,3]dioxole-5-carboxylic acid {2-[3-[(furan-2-carbonyl)-amino]-4-(4-o-tolyl-piperazin-1-yl)-benzoylamino]-ethyl}-methyl-amide], the pEC50 in test [1] (Table 1) was 5.00 to 6.00. On to `Cc1ccc(C(=O)Nc2cc(C(=O)NCc3cccc(Br)c3)ccc2N2CCN(c3ccccc3C)CC2)o1` [Compound 170], for which, in test [1] (Table 1), the activation at 5 µM is 32%. On to `Cc1ccccc1N1CCN(c2ccc(C(=O)NCCCn3ccnc3C)cc2NC(=O)c2ccco2)CC1` [Compound 118], for which the pEC50 in test [1] (Table 1) is 6.00 to 7.00.

`Cc1cccnc1N1CCN(c2ccc(C(=O)NCCc3c[nH]cn3)cc2NC(=O)c2coc(C3CC3)n2)CC1` [Compound 444]: the negative logarithm of the EC50 (pEC50) in test [1] (Table 2) was 6.00 to 7.00.

As to `Cc1ccccc1N1CCN(c2ccc(C(=O)NOC[C@H](O)CO)cc2NC(=O)c2coc(C3CC3)n2)CC1` [Compound 542], the negative-log EC50 (pEC50) in test [1] (Table 2) was 6.00 to 7.00.

Turning to `Cc1ccc(C(=O)Nc2cc(C(=O)NCCCN3CCCC3=O)ccc2N2CCN(Cc3ccccc3C)[C@@H](C)C2)o1` [Compound 253], the activation at 5 µM in test [1] (Table 1) is 24%. Regarding `Cc1ccccc1N1CCN(c2ccc(C(=O)NCCCN3CCN(C)C3=O)cc2NC(=O)c2coc(C3CC3)n2)CC1` [Compound 331], in test [1] (Table 2), the pEC50 was above 7.00. Regarding `Cc1ccccc1N1CCN(c2ccc(C(=O)NCCc3c[nH]cn3)cc2NC(=O)c2coc(C3CC3)n2)CC1` [Compound 293], in test [1] (Table 2), the pEC50 is 6.00 to 7.00. Take `Cc1ccccc1N1CCN(c2ccc(C(=O)NCc3ccccc3C(N)=O)cc2NC(=O)c2ccco2)CC1` [Compound 238]: the pEC50 in test [1] (Table 1) was 6.00 to 7.00. In the case of `CCc1ncc(C(=O)Nc2cc(C(=O)NCCCN3CCCC3=O)ccc2N2CCN(c3ccccc3C)CC2)s1` [Compound 200], the pEC50 in test [1] (Table 1) was 5.00 to 6.00. `Cc1ccc(C(=O)Nc2cc(C(=O)NC[C@H](O)c3ccccc3)ccc2N2CCN(c3ccccc3C)CC2)o1` [Compound 584]: in test [1] (Table 2), the pEC50 is 5.00 to 6.00.
